The values that follow come from patent US12715844B2, “Compound, preparation method therefor, composition, kit and use thereof” (SIGNDO BIOTECHNOLOGY (SUZHOU) CO., LTD, priority 2023, dated 2026).

Each structure is given as a SMILES string. “And” between values parts separate entries of the source, which are not always exact repeats. Equal entries are not always repeated.

Data set [1] can be described thus: Pharmacokinetic parameters in rat plasma. The following applies: for clearance in rats in vivo, in words: compared with OTL78. It is filed as in vivo.
For data set [2], the system named is 22RV1 (PSMA+). Briefly: 2-hour ex vivo tissue distribution: fluorescence of tumor and in situ normal prostate. More on the design: species or system mice. Particulars: for discrimination capability (tumor vs normal prostate) compared with OTL78: relative to OTL78; for Prostate fluorescence / Tumor fluorescence / T/P Ratio: 2 h ex vivo, 10 nmol/mouse; for T/P Ratio: tumor to in situ normal prostate. From the text: (§1) The Prostate-specific membrane antigen (PSMA) is overexpressed on prostate cancer cells. The test compound is a PSMA-targeting molecule conjugated with a near-infrared region I dye. The test compound can bind to PSMA and “illuminate” cancer cells upon excitation by a near-infrared light source. In this experiment, the in vivo and ex vivo tissue distribution of the test compound in mice is detected using in vivo live imaging.
(§2) Matrigel was thawed on ice in advance, and the culture medium was pre-cooled on ice. After centrifugation, the cells were resuspended in the pre-cooled culture medium, followed by the addition of HC Matrigel gel in a volume equal to the culture medium. The centrifuge tube containing the cells was placed on ice and transferred to the animal facility. The cells were thoroughly dispersed before inoculation. The back of the neck was disinfected with an alcohol cotton ball, and a single intravenous administration was performed with an inoculation volume of 200 μL per mouse. All operations were performed on ice. When the tumor volume reached 300-400 mm^3, the mice were grouped for administration. Six mice with well-grown and regularly shaped tumors were selected into the group. The six mice were randomly divided into two groups: G1 (OTL78 10 nmol/mouse) and G2 (DGPR1008 10 nmol/mouse) with three mice in each group. The scanning time: 1, 2, 4, 8, 24, and 72 h.
(2) Results of 2-Hour Ex Vivo Tissue Distribution: Fluorescence Ratio of Tumor to In Situ Normal Prostate: […]

Data set [3] has as its system 22RV1 (PSMA+). Briefly: Drug efficacy validation by in vivo live imaging, three dose groups. Set-up: species or system mice. The following applies: for targeting properties: 22RV1 tumor mice, in vivo live imaging; for enrichment in the prostate cancer tumor site: high, medium and low doses (25, 50, 100 nmol/mouse), scans 1-48 h. From the text: (§3) “V” denotes the volume-to-mass ratio. […] Mice refer to BALB/c nude mice, 6-8 weeks old, weighing 18-20 g; rats refer to SD rats: 8 weeks old, approximately 250 g.
2. Drug Efficacy Validation Experiment Using In Vivo Live Imaging
Prostate-specific membrane antigen (PSMA) is overexpressed on prostate cancer cells. The test compound is a PSMA-targeting molecule conjugated with a near-infrared region I dye. The test compound can bind to PSMA and “illuminate” cancer cells upon excitation by a near-infrared light source. In this experiment, the in vivo tissue distribution of the test compound in mice is detected using in vivo live imaging.
DGPR1008, 22RV1 (PSMA+), PC3 (PSMA−), 1640 culture medium, FBS, double antibodies, trypsin, Matrigel (BD), vernier caliper, centrifuge, IVIS live imager.
Matrigel was thawed on ice in advance, and the culture medium was pre-cooled on ice. After centrifugation, the cells were resuspended in the pre-cooled culture medium, followed by the addition of HC Matrigel gel in a volume equal to the culture medium. The centrifuge tube containing the cells was placed on ice and transferred to the animal facility. The cells were thoroughly dispersed before inoculation. The right dorsal shoulder area of the mice was disinfected with an alcohol cotton ball, and a single intravenous administration was performed with an inoculation volume of 200 μL per mouse. All operations were performed on ice. When the tumor volume reached 300-400 mm^3, the mice were grouped for administration. Nine mice with well-grown and regularly shaped tumors were selected into the group. The nine mice were randomly divided into three groups: G1 (25 nmol/mouse), G2 (50 nmol/mouse), and G3 (100 nmol/mouse), with three mice in each group. The scanning time: 1, 2, 4, 8, 24, and 48 h.

A short description of data set [4]: Acute toxicity experiment on rats. Particulars: three dose groups of high, medium and low doses.
Data set [5] relates to 22RV1 (PSMA+). As to the kind of experiment: In vivo live imaging comparison with the existing product OTL78. Set-up: species or system mice. Particulars: for TBR (tumor-to-background ratio), in words: from about 2 h to 72 h; for fluorescence value at the tumor site compared with OTL78: mice, each time point; for TBR compared with OTL78: relative to OTL78; for TBR (mean) / fluorescence value at the tumor site: 10 nmol/mouse; for TBR (mean): 200 μL/mouse.
Text: as §3
3. Comparison with the Existing Product OTL78
as §1
DGPR1008, 22RV1 (PSMA+), BALB/c nude mouse, 1640 culture medium, FBS, double antibodies, trypsin, Matrigel (BD), vernier caliper, centrifuge, IVIS live imager.
as §2
(1) Results and Data of In Vivo Live Imaging of Drug Efficacy (Mice were Used as Experimental Subjects in this Part)

The target in another data set is T1, PSMA receptor (Homo sapiens, UniProt Q04609).
T1 construct: endogenous in cells; host or cells: 22RV1 (PSMA+); PC3 (PSMA−) as negative control
T1 sequence (Q04609 whole entry): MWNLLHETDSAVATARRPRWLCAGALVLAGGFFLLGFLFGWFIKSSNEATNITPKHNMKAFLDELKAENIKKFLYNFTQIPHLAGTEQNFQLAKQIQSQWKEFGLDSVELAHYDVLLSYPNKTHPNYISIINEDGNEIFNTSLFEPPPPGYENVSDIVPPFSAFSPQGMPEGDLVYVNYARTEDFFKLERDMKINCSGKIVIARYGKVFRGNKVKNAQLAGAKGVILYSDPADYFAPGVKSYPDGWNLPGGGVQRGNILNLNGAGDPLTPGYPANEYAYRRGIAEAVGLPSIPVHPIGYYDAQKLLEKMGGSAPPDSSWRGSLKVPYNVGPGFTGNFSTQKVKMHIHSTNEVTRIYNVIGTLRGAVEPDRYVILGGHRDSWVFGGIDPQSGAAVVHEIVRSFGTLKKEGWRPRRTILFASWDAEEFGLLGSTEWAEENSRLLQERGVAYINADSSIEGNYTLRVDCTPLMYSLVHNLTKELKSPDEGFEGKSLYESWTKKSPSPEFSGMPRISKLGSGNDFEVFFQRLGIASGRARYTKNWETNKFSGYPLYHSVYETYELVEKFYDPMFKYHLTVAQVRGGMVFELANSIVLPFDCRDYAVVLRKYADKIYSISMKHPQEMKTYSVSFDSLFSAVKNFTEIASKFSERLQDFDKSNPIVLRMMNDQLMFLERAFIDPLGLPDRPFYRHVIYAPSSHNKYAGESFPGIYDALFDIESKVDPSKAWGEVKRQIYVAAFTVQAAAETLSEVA
As to the kind of experiment: Receptor binding detected by flow cytometry in vitro (competitive binding with DUPA-FITC). Particulars: 22RV1 (PSMA+) cells, competition with 100 nmol/L DUPA-FITC. From the text: 1. Receptor Binding was Detected by Flow Cytometry In Vitro:
Prostate-specific membrane antigen (PSMA) is overexpressed on prostate cancer cells. Both DUPA-FITC and DGPR1008 are capable of targeting the PSMA receptor in prostate cancer cells, with the difference being that DUPA-FITC is connected to a visible light dye (Ex=495 nm, Em=520 nm), whereas DGPR1008 is connected to a near-infrared dye (Ex=776 nm, Em=793 nm). Since the majority types of lasers equipped in flow cytometers operate within the visible light spectrum, the binding affinity of DGPR1008 to the receptor can not be directly measured. Therefore, the competitive binding of DGPR1008 with DUPA-FITC to PSMA is employed to indirectly assess the binding affinity of the test compound to the receptor.
DGPR1008, DUPA-FITC, 22RV1 (PSMA+), PC3 (PSMA−), 1640 culture medium, FBS, double antibiotics, trypsin, centrifuge, 4° C. constant temperature incubator, flow cytometer.
Drug preparation: 100 nmol/L DUPA-FITC was prepared using culture medium. The test compound was diluted to nine concentrations (0.00098 μM, 0.002 μM, 0.008 μM, 0.01 μM, 0.03 μM, 0.05 μM, 0.09 μM, 0.1 μM, and 0.125 μM) using culture medium containing 100 nmol/L DUPA-FITC, with three replicate wells for each concentration.
Cell culture: The cells were seeded in T75 culture flasks. After 48 h, cells in the logarithmic growth phase were taken, digested with trypsin for 1-2 min, and the digestion was then terminated by adding fresh culture medium. After cell counting, the cells were transferred into a 96-well plate (1×10^5 cells/well), totaling 27 wells. The culture medium was discarded by centrifugation (800 rpm, 5 min), and the cells were washed twice with PBS and then centrifuged to collect the cell pellet. The prepared culture media with 9 concentrations were added to the cell-containing wells, with three replicates for each concentration. The cells were incubated at 4° C. in the dark for 30 min, and then the culture medium in the wells was discarded. Cells were washed by adding 300 μL of fresh culture medium (twice) and saline (once) to each well, followed by resuspension in 300 μL of saline for flow cytometry detection.

For the molecule `CC1(C)C(=CC=C2CCCC(C=CC3=[N+](CCCCS(=O)(=O)[O-])c4ccc(S(=O)(=O)[O-])cc4C3(C)C)=C2Oc2ccc(CC(NC(=O)CCOCCOCCNC(=O)CCC(NC(=O)NC(CCC(=O)[O-])C(=O)[O-])C(=O)[O-])C(=O)[O-])cc2)N(CCCCS(=O)(=O)[O-])c2ccc(S(=O)(=O)[O-])cc21.[K+].[K+].[K+].[K+].[K+].[K+].[K+]` (centres unmarked) [Example 12], in data set [1], the “clearance in rats in vivo, in words” value is “cleared more rapidly”. Also, in the data set on 22RV1 (PSMA+) [2], the “discrimination capability (tumor vs normal prostate) compared with OTL78” value is recorded as “approximately 5 fold”. In the data set with 22RV1 (PSMA+) [3], the targeting properties entry was “good targeting properties” and the “enrichment in the prostate cancer tumor site” value (“enrichment” for short) was “enriched in the prostate cancer tumor site”. For the same molecule, the “toxic reactions in acute toxicity experiment” value (shortened to “toxic reactions”) in data set [4] was “no toxic reactions were observed”. In addition, in the data set with 22RV1 (PSMA+) [5], the “TBR (tumor-to-background ratio), in words” value was “good TBR”; the “fluorescence value at the tumor site compared with OTL78” value is “greater fluorescence values at the tumor site than OTL78”; the “TBR compared with OTL78” value is reported as “higher TBR”. Besides, at PSMA receptor, the “binding affinity to PSMA receptor” value is “good affinity”.
In the case of `CC1(C)C(=CC=C2CCCC(C=CC3=[N+](CCCCS(=O)(=O)[O-])c4ccc(S(=O)(=O)[O-])cc4C3(C)C)=C2Oc2ccc(CC(NC(=O)CCOCCOCCNC(=O)CCC(NC(=O)NC(CCC(=O)[O-])C(=O)[O-])C(=O)[O-])C(=O)[O-])cc2)N(CCCCS(=O)(=O)[O-])c2ccc(S(=O)(=O)[O-])cc21.[Li+].[Li+].[Li+].[Li+].[Li+].[Li+].[Li+]` (centres unmarked) [Example 13], the “clearance in rats in vivo, in words” value in data set [1] was “cleared more rapidly”. Also, the “discrimination capability (tumor vs normal prostate) compared with OTL78” value in the data set with 22RV1 (PSMA+) [2] is recorded as “approximately 5 fold”. In the data set with 22RV1 (PSMA+) [3], the targeting properties result was “good targeting properties” and the “enrichment” value is listed as “enriched in the prostate cancer tumor site”. The “toxic reactions” value in data set [4] is “no toxic reactions were observed”. In the data set on 22RV1 (PSMA+) [5], the “TBR (tumor-to-background ratio), in words” value is listed as “good TBR”; the “fluorescence value at the tumor site compared with OTL78” value is “greater fluorescence values at the tumor site than OTL78”; the “TBR compared with OTL78” value was “higher TBR”. Moreover, the “binding affinity to PSMA receptor” value on PSMA receptor is recorded as “good affinity”.
Turning to `CC1(C)C(=CC=C2CCCC(C=CC3=[N+](CCCCS(=O)(=O)[O-])c4ccc(S(=O)(=O)[O-])cc4C3(C)C)=C2Oc2ccc(CC(NC(=O)CCOCCCOCCCNC(=O)CCC(NC(=O)NC(CCC(=O)[O-])C(=O)[O-])C(=O)[O-])C(=O)[O-])cc2)N(CCCCS(=O)(=O)[O-])c2ccc(S(=O)(=O)[O-])cc21.[Na+].[Na+].[Na+].[Na+].[Na+].[Na+].[Na+]` (centres unmarked) [Example 31], in data set [1], the “clearance in rats in vivo, in words” value is on record as “cleared more rapidly”. Moreover, the “discrimination capability (tumor vs normal prostate) compared with OTL78” value with 22RV1 (PSMA+) [2] is on record as “approximately 5 fold”. For the same molecule, in the data set on 22RV1 (PSMA+) [3], the targeting properties entry was “good targeting properties” and the “enrichment” value is on record as “enriched in the prostate cancer tumor site”. For the same molecule, the “toxic reactions” value in data set [4] is given as “no toxic reactions were observed”. Further, in the data set on 22RV1 (PSMA+) [5], the “TBR (tumor-to-background ratio), in words” value is “good TBR”; the “fluorescence value at the tumor site compared with OTL78” value is on record as “greater fluorescence values at the tumor site than OTL78”; the “TBR compared with OTL78” value was “higher TBR”. Also, on PSMA receptor, the “binding affinity to PSMA receptor” value is recorded as “good affinity”.
As for `CC1(C)C(/C=C/C2=C(Oc3ccc(C[C@H](NC(=O)[C@H](Cc4ccccc4)NC(=O)CCOCCOCCNC(=O)CC[C@H](NC(=O)N[C@@H](CCC(=O)O)C(=O)O)C(=O)O)C(=O)O)cc3)C(=C/C=C3/N(CCCCS(=O)(=O)O)c4ccc(S(=O)(=O)O)cc4C3(C)C)/CCC2)=[N+](CCCCS(=O)(=O)[O-])c2ccc(S(=O)(=O)O)cc21` [OTL78, reference compound], the “average AUC0-t” value in data set [1] (rats, 2 mg/kg, plasma) is 9429 ng·h/mL. The average clearance in data set [1] (rats, 2 mg/kg, plasma) was found to be 3.50 mL/min/kg. Further, the Prostate fluorescence was 3.27E+09 photon/second in the data set with 22RV1 (PSMA+) [2] (group mean); 4.77E+08 photon/second and 8.11E+09 photon/second and 1.23E+09 photon/second in the data set with 22RV1 (PSMA+) [2] (individual animal). The Tumor fluorescence in the data set with 22RV1 (PSMA+) [2] (group mean) is 7.26E+09 photon/second; with 22RV1 (PSMA+) [2] (individual animal), 7.07E+09 photon/second and 1.01E+10 photon/second and 4.61E+09 photon/second. Moreover, the “T/P Ratio” value in the data set with 22RV1 (PSMA+) [2] (group mean) was 6.61; with 22RV1 (PSMA+) [2] (individual animal), 14.8 and 1.25 and 3.75. Also, the “TBR (mean)” value in the data set on 22RV1 (PSMA+) [5] (1 h) amounted to 1.30; with 22RV1 (PSMA+) [5] (2 h), 1.35; in the data set on 22RV1 (PSMA+) [5] (4 h), 1.38; in the data set on 22RV1 (PSMA+) [5] (8 h), 1.36; in the data set on 22RV1 (PSMA+) [5] (24 h), 1.55; with 22RV1 (PSMA+) [5] (72 h), 1.65. For the same molecule, the “fluorescence value at the tumor site” value was 8.75E+09 in the data set with 22RV1 (PSMA+) [5] (1 h); 6.58E+09 with 22RV1 (PSMA+) [5] (2 h); 3.27E+09 in the data set on 22RV1 (PSMA+) [5] (4 h); 1.71E+09 in the data set with 22RV1 (PSMA+) [5] (8 h); 1.41E+09 with 22RV1 (PSMA+) [5] (24 h); 9.69E+08 with 22RV1 (PSMA+) [5] (72 h).
